Tests used:
[1] = test system: antibodies produced by cell culture 89-147EH9; experiment: CIEIA for detection of biocides, four inhibitors at several concentrations; assay type: binding, mouse; settings: no inhibitor 515
Experimental: The supernatants from wells with growing colonies of hybridomas were screened using CIEIA. Ninety-six well polystyrene EIA ([…]) plates were coated with 100 μl of 651 conjugated to BSA (651-BSA) for at least two hours at room temperature or 16 hours at 4° C. Unbound material was washed from the wells with five washes of PBS-T. […] The wells then received 50 μl of supernatant from each cell culture, so that each supernatant was reacted with either buffer, 651 or 573 (inhibitors). […] The wells were incubated for 30-60 minutes at room temperature. They were then washed five times with PBS-T to remove unbound material and each well then received 100 μl of a 1 μg/ml solution of biotinylated horse anti-mouse IgG (Vector Laboratories, Burlingame, Calif.), and the assay continued as described for the ELISA, supra.

[2] = test system: anti-651 antibody covalently linked to horseradish peroxidase; experiment: Colorometric determination of isothiazolones in wood with anti-651-HRP; assay type: binding; settings: pressure treated Southern Yellow pine wafer, anti-651-HRP 500 ng/ml, ABTS, corrected for background; control wafer 0.002
Experimental: Southern Yellow pine, which had been pressure treated with a solution containing 4,5-dichloro-2-n-octyl-3-isothiazolone using commercial methods, was cut into wafers (0.5×2.5 cm). These wood wafers were soaked in a solution of 3% nonfat milk for 30 minutes. The wafers were then rinsed briefly with PBS-T, and then exposed to the anti-651 antibody, which is covalently linked to horseradish peroxidase at 500 ng/ml, for 15 minutes. The wafers were then washed twice for 30 minutes each in PBS-T buffer. The bound anti-651-HRP complex was visualized by placing the wafers in a vial containing HRP substrate (ABTS). The appearance of a […] color in the solution indicated the presence of 4,5-dichloro-2-n-octyl-3-isothiazolone. A 200 μl aliquot of the solution in the vial was taken and the absorbance determined at 405 nm. This was compared to a control wood wafer treated in an identical manner but containing no isothiazolone. The absorbance values were then corrected for background.

| SMILES | 10 Minute Absorbances × 1000 ([1]; inhibitor concentration 0.08 ppm) | 10 Minute Absorbances × 1000 ([1]; inhibitor concentration 0.4 ppm) | 10 Minute Absorbances × 1000 ([1]; inhibitor concentration 2 ppm) | 10 Minute Absorbances × 1000 ([1]; inhibitor concentration 10 ppm) | 10 Minute Absorbances × 1000 ([1]; inhibitor concentration 50 ppm) | A405 [2] |
| --- | --- | --- | --- | --- | --- | --- |
| CNC(=O)CC(=O)O [NMA, Nmethyl malonamic acid] | 429 | 519 | 496 | 518 | 490 |  |
| CCCCCCCCn1sc(Cl)c(Cl)c1=O [compound 287, 4,5-dichloro-2-n-octyl-3-isothiazolone] |  |  |  |  |  | 0.165 |
| CCCCCCCCn1sccc1=O [compound 893, 2-n-octyl-3-isothiazolone] |  |  | 514 | 589 | 516 |  |

Reference: patent publication US5554542A, “Immunoassay for isothiazolones” (Rohm and Haas Company, priority 1993, dated 1996)
